According to patent publication US9468212B2, “Antifungal compositions” (DSM IP ASSETS B.V., priority 2013, dated 2016):
Several values for one entry are separate records, joined by “and”; a condition that tells them apart may be missing. Equal entries are not always repeated.

Legend:
[1] = test system: Botrytis cinerea; assay: Treatment of sweet peppers: wounded, inoculated with Botrytis cinerea, wound treated with antifungal composition (Example 10); format: in vivo; settings: 400 ppm natamycin, 600 ppm fenpiclonil or both, 20° C.
Method: Ten fresh, organic sweet peppers were used per treatment. The peel of each sweet pepper was wounded once using a cork borer according to the method described by de Lapeyre de Bellaire and Dubois (1987). Subsequently, each wound was inoculated with 10 μl of a Botrytis cinerea suspension containing 1×10^5 of spores/ml. After incubation for 3 hours at 20° C., each wound and the skin area of 0.5 cm around the wound was treated with in total 75 μl of a freshly prepared aqueous antifungal composition comprising either 400 ppm natamycin (DSM Food Specialties, Delft, The Netherlands), 600 ppm fenpiclonil or both. Each antifungal composition also comprised 3.2% (w/w) beeswax, 0.8% (w/w) glycerol, 0.7% (w/w) polyoxyethylene sorbitan monostearate (Tween 60), 0.2% (w/w) polyoxyethylene sorbitan monooleate (Tween 80), 0.05% (w/w) methylhydroxyethyl-cellulose (MHEC), 0.03% (w/w) anti-foaming agent, 0.02% (w/w) xanthan gum, 0.02% (w/w) citric acid, 0.01% (w/w) lactic acid and 0.01% potassium sorbate. A composition without natamycin or fenpiclonil was used as control.
The treated sweet peppers were incubated in a closed box in the dark at 20° C. and assessed on mould growth during incubation. The antifungal activity (in %) of the individual and combined active ingredients was determined by calculating the reduction in mould growth observed on the sweet peppers treated with the antifungal composition in comparison to the mould growth on the sweet peppers treated with the control composition according to the Colby method (Colby, 1967) as described in Example 5.

[2] = test system: Penicillium italicum; assay: Treatment of oranges: wounded, inoculated with Penicillium italicum, wound treated with antifungal composition (Examples 7-9); format: in vivo; settings: 500 ppm natamycin, 400 ppm fenpiclonil or both, oranges, 20° C.
Method: The expected antifungal activity (E in %) of the combined antifungal composition comprising both active ingredients was calculated according to the Colby equation (Colby, 1967): E=X+Y−[(X·Y)/100] wherein X and Y are the observed antifungal activities (in %) of the individual active ingredients X and Y, respectively.
Eight fresh, organic oranges were used per treatment. Each orange was soaked in a 180 ppm hypochlorite solution for 10 minutes, then rinsed thoroughly with fresh tap water and dried. The peel of each disinfected orange was wounded once using a cork borer according to the method described by de Lapeyre de Bellaire and Dubois (1987). Subsequently, each wound was inoculated with 10 μl of a Penicillium italicum suspension containing 5×10^5 of spores/ml. After incubation for 3 hours at 20° C., each wound and the orange peel area of 1 cm around the wound was treated with in total […] of a freshly prepared aqueous antifungal composition comprising either 500 ppm natamycin (DSM Food Specialties, Delft, The Netherlands), 300 ppm fludioxonil or both. Each antifungal composition also comprised 3.2% (w/w) beeswax, 0.8% (w/w) glycerol, 0.7% (w/w) polyoxyethylene sorbitan monostearate (Tween 60), 0.1% (w/w) polyoxyethylene sorbitan monooleate (Tween 80), 0.05% (w/w) methylhydroxyethyl-cellulose (MHEC), 0.03% (w/w) anti-foaming agent, 0.02% (w/w) xanthan gum, 0.02% (w/w) citric acid, 0.01% (w/w) lactic acid and 0.01% potassium sorbate. A composition without natamycin or fludioxonil was used as control.
The treated oranges were incubated in a closed box in the dark at 20° C. and assessed on mould growth during a 27-day incubation period.
The experiment was conducted as described in Example 7, except for the fact that each wounded and inoculated orange was treated with 150 μl of a freshly prepared aqueous antifungal composition comprising either 250 ppm natamycin (DSM Food Specialties, Delft, The Netherlands), 100 ppm fludioxonil or both. During incubation, the treated oranges were assessed on mould growth according to the two methods described in Example 5.
The experiment was conducted as described in Example 7, except for the fact that each wounded and inoculated orange was treated with 150 μl of a freshly prepared aqueous antifungal composition comprising either 500 ppm natamycin (DSM Food Specialties, Delft, The Netherlands), 400 ppm fenpiclonil or both. During a 23-day incubation period, the treated oranges were assessed on mould growth according to the two methods described in Example 5.

## N#Cc1c[nH]cc1-c1cccc(Cl)c1Cl [Fenpiclonil, fenpiclonil]
[1]; 47 days
  Observed antifungal activity O (%): 0%
[1]; 48 days
  Observed antifungal activity O (%): 0%
[1]; 49 days
  Observed antifungal activity O (%): 0%
[1]; 50 days
  Observed antifungal activity O (%): 0%
[2]; 22-23 days
  Observed antifungal activity O (%): 0%
[2]; 12 days
  Observed antifungal activity O (%): 78%
[2]; 13 days
  Observed antifungal activity O (%): 70%
[2]; 14 days
  Observed antifungal activity O (%): 66%
[2]; 15 days
  Observed antifungal activity O (%): 59%
[2]; 16 days
  Observed antifungal activity O (%): 47%
[2]; 18 days
  Observed antifungal activity O (%): 28%
[2]; 19 days
  Observed antifungal activity O (%): 17%
[2]; 20 days
  Observed antifungal activity O (%): 6%
[2]; 21 days
  Observed antifungal activity O (%): 3%
[2]; Day 14-15
  Number of moulded oranges/total number of 8 oranges: 6 and 6/8
[2]; Day 16
  Number of moulded oranges/total number of 8 oranges: 8 and 8/8
[2]; Day 18
  Number of moulded oranges/total number of 8 oranges: 8 and 8/8
[2]; Day 19-23
  Number of moulded oranges/total number of 8 oranges: 8 and 8/8
